Laboratory results as given in PubChem BioAssay (NCI).
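Results reflect a 48-hour exposure of cells in 96-well plates to compound at five concentrations. GI50 is the concentration that inhibits growth by half. At the TGI there is no net growth.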

What was measured:
Assay in all cases: NCI anticancer screen, dose series, 48 h
K-562 leukemia = test system: K-562 leukemia
RPMI-8226 leukemia = test system: RPMI-8226 leukemia
CCRF-CEM leukemia = test system: CCRF-CEM leukemia
IGROV1 ovarian = test system: IGROV1 ovarian
SF-295 CNS = test system: SF-295 CNS
MCF7 breast = test system: MCF7 breast
SF-539 CNS = test system: SF-539 CNS
SR leukemia = test system: SR leukemia
SK-MEL-5 melanoma = test system: SK-MEL-5 melanoma
NCI-H226 lung = test system: NCI-H226 lung
NCI-H460 lung = test system: NCI-H460 lung
HS 578T breast = test system: HS 578T breast
CAKI-1 renal = test system: CAKI-1 renal
ACHN renal = test system: ACHN renal
BT-549 breast = test system: BT-549 breast
TK-10 renal = test system: TK-10 renal
RXF 393 renal = test system: RXF 393 renal
OVCAR-8 ovarian = test system: OVCAR-8 ovarian
M14 melanoma = test system: M14 melanoma
KM12 colon = test system: KM12 colon
SF-268 CNS = test system: SF-268 CNS
HCT-116 colon = test system: HCT-116 colon
HOP-62 NSCLC = test system: HOP-62 NSCLC
DU-145 prostate = test system: DU-145 prostate
SW-620 colon = test system: SW-620 colon
UACC-257 melanoma = test system: UACC-257 melanoma
LOX IMVI melanoma = test system: LOX IMVI melanoma
A498 renal = test system: A498 renal
COLO 205 colon = test system: COLO 205 colon
OVCAR-3 ovarian = test system: OVCAR-3 ovarian
HL-60(TB) leukemia = test system: HL-60(TB) leukemia
MALME-3M melanoma = test system: MALME-3M melanoma
UACC-62 melanoma = test system: UACC-62 melanoma
OVCAR-5 ovarian = test system: OVCAR-5 ovarian
MDA-MB-435 = test system: MDA-MB-435
SK-MEL-28 melanoma = test system: SK-MEL-28 melanoma
786-0 renal = test system: 786-0 renal
U251 CNS = test system: U251 CNS
UO-31 renal = test system: UO-31 renal
T-47D breast = test system: T-47D breast
NCI-H23 lung = test system: NCI-H23 lung
HCC-2998 colon = test system: HCC-2998 colon
SNB-19 CNS = test system: SNB-19 CNS
MDA-MB-231 breast = test system: MDA-MB-231 breast
SK-OV-3 ovarian = test system: SK-OV-3 ovarian
PC-3 prostate = test system: PC-3 prostate
HCT-15 colon = test system: HCT-15 colon
HOP-92 NSCLC = test system: HOP-92 NSCLC
HT29 colon = test system: HT29 colon
NCI-H522 lung = test system: NCI-H522 lung
OVCAR-4 ovarian = test system: OVCAR-4 ovarian
SK-MEL-2 melanoma = test system: SK-MEL-2 melanoma
SN12C renal = test system: SN12C renal
EKVX NSCLC = test system: EKVX NSCLC
MOLT-4 leukemia = test system: MOLT-4 leukemia
A549 NSCLC = test system: A549 NSCLC

## COc1cc(-n2cncc2-c2ccc3ccccc3c2)cc(OC)c1OC
K-562 leukemia
  GI50: < 10 nM
  TGI: > 83400 nM
RPMI-8226 leukemia
  GI50: 54.3 nM
  TGI: > 100000 nM
CCRF-CEM leukemia
  GI50: 34.4 nM
  TGI: > 100000 nM
IGROV1 ovarian
  GI50: 87.2 nM
  TGI: > 38000 nM
SF-295 CNS
  GI50: < 10 nM
  TGI: > 100000 nM
MCF7 breast
  GI50: < 10 nM
  TGI: > 100000 nM
SF-539 CNS
  GI50: 18.4 nM
  TGI: 73400 nM
SR leukemia
  GI50: < 10 nM
  TGI: 10400 nM
SK-MEL-5 melanoma
  GI50: < 10 nM
NCI-H226 lung
  GI50: 2030 nM
  TGI: > 62000 nM
NCI-H460 lung
  GI50: < 17.9 nM
  TGI: > 100000 nM
HS 578T breast
  GI50: < 12.7 nM
  TGI: > 100000 nM
CAKI-1 renal
  GI50: 37 nM
  TGI: > 100000 nM
ACHN renal
  TGI: > 57200 nM
BT-549 breast
  GI50: 62.1 nM
  TGI: > 100000 nM
TK-10 renal
  GI50: 33800 nM
  TGI: > 100000 nM
RXF 393 renal
  GI50: 19.9 nM
  TGI: 28900 nM
OVCAR-8 ovarian
  GI50: 54.6 nM
  TGI: > 100000 nM
M14 melanoma
  GI50: 17.1 nM
  TGI: 5620 nM
KM12 colon
  GI50: < 10 nM
  TGI: > 100000 nM
SF-268 CNS
  GI50: 26 nM
  TGI: > 59000 nM
HCT-116 colon
  GI50: < 18.1 nM
  TGI: > 34600 nM
HOP-62 NSCLC
  GI50: 39.1 nM
  TGI: 25100 nM
DU-145 prostate
  GI50: 32.4 nM
  TGI: > 100000 nM
SW-620 colon
  GI50: < 15.9 nM
  TGI: > 100000 nM
UACC-257 melanoma
  GI50: > 87000 nM
  TGI: > 100000 nM
LOX IMVI melanoma
  GI50: 87.2 nM
  TGI: > 41800 nM
A498 renal
  GI50: < 10 nM
  TGI: 1410 nM
COLO 205 colon
  GI50: < 10 nM
  TGI: 391 nM
OVCAR-3 ovarian
  GI50: < 17.9 nM
  TGI: > 100000 nM
HL-60(TB) leukemia
  GI50: < 10 nM
  TGI: 1540 nM
MALME-3M melanoma
  GI50: > 100000 nM
  TGI: > 100000 nM
UACC-62 melanoma
  TGI: > 54500 nM
OVCAR-5 ovarian
  GI50: 48.4 nM
  TGI: 53400 nM
MDA-MB-435
  GI50: < 10 nM
  TGI: > 100000 nM
SK-MEL-28 melanoma
  TGI: > 100000 nM
786-0 renal
  GI50: 49.6 nM
  TGI: 18500 nM
U251 CNS
  GI50: 23 nM
  TGI: 16700 nM
UO-31 renal
  GI50: 401 nM
  TGI: > 100000 nM
T-47D breast
  GI50: > 100000 nM
  TGI: > 100000 nM
NCI-H23 lung
  GI50: 25.5 nM
  TGI: 5910 nM
HCC-2998 colon
  GI50: < 11.6 nM
  TGI: 29.7 nM
SNB-19 CNS
  GI50: 23.4 nM
  TGI: > 100000 nM
MDA-MB-231 breast
  GI50: 59.5 nM
  TGI: > 57600 nM
SK-OV-3 ovarian
  GI50: 51.8 nM
  TGI: > 69400 nM
PC-3 prostate
  GI50: 15.8 nM
  TGI: > 100000 nM
HCT-15 colon
  GI50: < 16.9 nM
  TGI: > 53200 nM
HOP-92 NSCLC
  GI50: 957 nM
  TGI: > 100000 nM
HT29 colon
  GI50: < 14.4 nM
  TGI: > 70600 nM
NCI-H522 lung
  GI50: < 10 nM
OVCAR-4 ovarian
  TGI: > 100000 nM
SK-MEL-2 melanoma
  GI50: 30.9 nM
  TGI: 51800 nM
SN12C renal
  GI50: 1050 nM
  TGI: > 100000 nM
EKVX NSCLC
  GI50: 65.7 nM
  TGI: > 100000 nM
MOLT-4 leukemia
  GI50: 53.8 nM
  TGI: > 66900 nM
A549 NSCLC
  GI50: 26.9 nM
  TGI: > 100000 nM
